Where two headings read alike, the source gives them in different places.
Tests used:
AeKir1 = AeKir1 (Aedes aegypti, UniProt L0EQS9); assay: Tl+ flux assay in T-REx-HEK293-AeKir1 cells; format: cell-based
Protocol: Tl^+ flux assays were performed essentially as described previously, [18], [19]. Briefly, stably transfected T-Rex-HEK-293 cells expressing AeKir1 channels were cultured overnight in 384-well plates (20,000 cells/20 µL/well black-walled, clear-bottomed BD PureCoat amine-coated plates (BD, Bedford, MA) with a plating media containing DMEM, 10% dialyzed FBS and 1 µg/mL tetracycline. The next day, the cell culture medium was replaced with a dye-loading solution containing assay buffer (Hanks Balanced Salt Solution with 20 mM HEPES, pH 7.3), 0.01% (w/v) Pluronic F-127 (Life Technologies, Carlsbad, CA), and 1.2 µM of the thallium-sensitive dye Thallos-AM (TEFlabs, Austin, TX). Following 1 hr incubation at room temperature, the dye-loading solution was washed from the plates and replaced with 20 µL/well of assay buffer. The plates were transferred to a Hamamatsu Functional Drug Screening System 6000 (FDSS6000; Hamamatsu, Hamamatsu (or Bridgewater, NJ), Japan) where 20 µL/well of test compounds in assay buffer (as prepared below) were added and allowed to incubate with the cells for 20 min. After the incubation period, a baseline recording was collected at 1 Hz for 10 s (excitation 470±20 nm, emission 540±30 nm) followed by a Tl^+ stimulus buffer addition (10 µL/well) and data collection for an additional 4 min. The Tl^+ stimulus buffer contains in (mM) 125 NaHCO3, 1.8 CaSO4, 1 MgSO4, 5 glucose, 12 Tl2SO4, 10 HEPES, pH 7.4. For Tl^+ flux assays on the mammalian channels Kir2.x, Kir4.1 and Kir6.2/SUR1 expressing cells, the Tl^+ stimulus buffer contained 1.8 mM Tl2SO4. Also, Tl^+ flux assays on Kir3.1/3.2/mGlu8 expressing cell, required addition of an EC80 concentration of glutamate (Sigma-Aldrich, St. Louis, MO) with the Tl^+ stimulus buffer. The test compounds were transferred to daughter polypropylene 384-well plates (Greiner Bio-One, Monroe, NC) using an Echo555 liquid handler (Labcyte, Sunnyvale, CA), and then diluted into assay buffer to generate a 2X stock in 0.6% DMSO (0.3% final). For Tl^+ flux assays on Kir6.2/SUR1 expressing cells, test compounds were diluted in assay buffer containing diazoxide (250 µM final) to induce channel activation. Concentration-response curves (CRCs) were generated by screening compounds at 3-fold dilution series in 4-point (1 µM–30 µM) or 11-point (1 nM–30 µM) CRCs. Tl^+ flux data were analyzed as previously described, [21], [22] using a combination of Excel (Microsoft Corp, Redmond, WA) with XLfit add-in (IDBS, Guildford, Surrey, UK) and OriginPro (OriginLab, Northampton, MA) software. Raw data were opened in Excel and each data point in a given trace was divided by the first data point from that trace (static ratio) followed by subtraction of data points from control traces generated in the presence of vehicle controls. The slope of the fluorescence increase beginning 5 s after Tl^+ addition and ending 15 s after Tl^+ addition was calculated. To compare the effect of DMSO on AeKir1-mediated Tl^+ flux, a one-way ANOVA was performed with a Tukey's multiple comparison test. Prism software (GraphPad Software) was used to generate CRC from Tl^+ flux. Half-inhibition concentration (IC50) values were calculated from fits using a four parameter logistic equation.

[1] = test system: mammalian Kir channels (Kir1.1, Kir2.1, Kir2.2, Kir2.3, Kir3.1/3.2, Kir4.1, Kir7.1(M125R), Kir6.2/SUR1); assay: Tl+ flux assays against a panel of mammalian Kir channels; format: cell-based; conditions: vs AeKir1 IC50 = 96.8 nM
Protocol: The plates were transferred to a Hamamatsu Functional Drug Screening System 6000 (FDSS6000; Hamamatsu, Hamamatsu (or Bridgewater, NJ), Japan) where 20 µL/well of test compounds in assay buffer (as prepared below) were added and allowed to incubate with the cells for 20 min. After the incubation period, a baseline recording was collected at 1 Hz for 10 s (excitation 470±20 nm, emission 540±30 nm) followed by a Tl^+ stimulus buffer addition (10 µL/well) and data collection for an additional 4 min. The Tl^+ stimulus buffer contains in (mM) 125 NaHCO3, 1.8 CaSO4, 1 MgSO4, 5 glucose, 12 Tl2SO4, 10 HEPES, pH 7.4. For Tl^+ flux assays on the mammalian channels Kir2.x, Kir4.1 and Kir6.2/SUR1 expressing cells, the Tl^+ stimulus buffer contained 1.8 mM Tl2SO4. Also, Tl^+ flux assays on Kir3.1/3.2/mGlu8 expressing cell, required addition of an EC80 concentration of glutamate (Sigma-Aldrich, St. Louis, MO) with the Tl^+ stimulus buffer.
The test compounds were transferred to daughter polypropylene 384-well plates (Greiner Bio-One, Monroe, NC) using an Echo555 liquid handler (Labcyte, Sunnyvale, CA), and then diluted into assay buffer to generate a 2X stock in 0.6% DMSO (0.3% final). For Tl^+ flux assays on Kir6.2/SUR1 expressing cells, test compounds were diluted in assay buffer containing diazoxide (250 µM final) to induce channel activation. […]

5-HT2B receptor = 5-HT2B receptor (Homo sapiens, UniProt P41595); assay: Radioligand displacement assay, 5-HT2B receptor; format: binding, mammalian; conditions: 10 µM VU625
Chain of 5-HT2B receptor (P41595 whole entry): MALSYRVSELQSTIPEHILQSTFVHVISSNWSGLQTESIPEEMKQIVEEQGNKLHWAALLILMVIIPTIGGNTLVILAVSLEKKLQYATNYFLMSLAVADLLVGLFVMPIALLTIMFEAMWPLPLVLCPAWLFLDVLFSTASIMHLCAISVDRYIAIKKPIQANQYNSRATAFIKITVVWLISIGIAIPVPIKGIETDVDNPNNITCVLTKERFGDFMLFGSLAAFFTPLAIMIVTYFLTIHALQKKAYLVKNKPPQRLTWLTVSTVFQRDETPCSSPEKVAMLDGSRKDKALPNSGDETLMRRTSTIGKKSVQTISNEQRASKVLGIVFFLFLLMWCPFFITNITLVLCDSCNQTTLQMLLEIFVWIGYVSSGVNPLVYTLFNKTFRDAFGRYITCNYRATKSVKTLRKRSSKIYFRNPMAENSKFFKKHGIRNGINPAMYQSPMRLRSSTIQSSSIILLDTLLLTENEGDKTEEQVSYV

Chain of AeKir1 (L0EQS9 entry or part of it): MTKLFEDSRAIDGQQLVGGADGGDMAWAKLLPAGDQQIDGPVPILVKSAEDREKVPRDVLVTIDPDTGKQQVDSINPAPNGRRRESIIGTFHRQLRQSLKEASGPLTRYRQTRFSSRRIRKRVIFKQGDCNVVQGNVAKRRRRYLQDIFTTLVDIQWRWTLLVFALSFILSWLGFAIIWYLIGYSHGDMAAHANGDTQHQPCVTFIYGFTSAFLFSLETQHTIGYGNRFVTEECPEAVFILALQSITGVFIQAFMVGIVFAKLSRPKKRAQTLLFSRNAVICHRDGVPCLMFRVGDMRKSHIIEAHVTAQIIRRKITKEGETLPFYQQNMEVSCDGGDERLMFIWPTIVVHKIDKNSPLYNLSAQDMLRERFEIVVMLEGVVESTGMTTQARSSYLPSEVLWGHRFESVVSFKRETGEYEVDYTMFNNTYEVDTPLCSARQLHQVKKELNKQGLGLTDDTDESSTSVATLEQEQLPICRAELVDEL

CCC(=O)N1c2ccc(S(=O)(=O)Nc3cccc(OC)c3)cc2CC1C (stereo not shown) [VU625, N-(3-methoxyphenyl)-2-methyl-1-propionylindoline-5-sulfonamide]
IC50 (AeKir1; 11-point CRCs, 95% CI: 0.25–0.39 µM, read-out: IC50 (AeKir1, Tl+ flux)): 320 nM
IC50 (AeKir1; Fig. 2C, 95% CI: 254.4–390.2 nM, n = 4 independent experiments in triplicate, read-out: IC50 (AeKir1, Tl+ flux)): 315 nM
IC50 (AeKir1; Table 2, southern amide SAR, 11-point CRCs on AeKir1 in Tl+ flux, triplicate on two separate days, read-out: IC50±SEM): 360 ± 20 nM
IC50 (AeKir1; Table S3, left-hand sulfonamide SAR, 11-point CRCs on AeKir1 in Tl+ flux, triplicate on two separate days, read-out: IC50): 856 nM
Hill coefficient (nH) (AeKir1; Tl+ flux CRC, 95% CI: 0.8–1.2): 0.98
selectivity for the AeKir1 channel over 8 mammalian Kir channels [1]: greater than 80 fold
radioligand displacement (5-HT2B receptor): 69%

— publication PMC4222822, “Discovery and Characterization of a Potent and Selective Inhibitor of Aedes aegypti Inward Rectifier Potassium Channels” (PLoS ONE, 2014)
